# Reference: publication PMC4364779, “IMD-4690, a Novel Specific Inhibitor for Plasminogen Activator Inhibitor-1, Reduces Allergic Airway Remodeling in a Mouse Model of Chronic Asthma via Regulating Angiogenesis and Remodeling-Related Mediators” (PLoS ONE, 2015)
# How the values were obtained:
# [1] = biological target: T1, Heparin Cofactor 2 (HC2/SERPIND1) (Homo sapiens, UniProt P05546); assay: SERPIN inhibition selectivity, similar enzymatic method; format: biochemical; conditions: Ser protease: Thrombin
# T1 sequence (P05546 20-499): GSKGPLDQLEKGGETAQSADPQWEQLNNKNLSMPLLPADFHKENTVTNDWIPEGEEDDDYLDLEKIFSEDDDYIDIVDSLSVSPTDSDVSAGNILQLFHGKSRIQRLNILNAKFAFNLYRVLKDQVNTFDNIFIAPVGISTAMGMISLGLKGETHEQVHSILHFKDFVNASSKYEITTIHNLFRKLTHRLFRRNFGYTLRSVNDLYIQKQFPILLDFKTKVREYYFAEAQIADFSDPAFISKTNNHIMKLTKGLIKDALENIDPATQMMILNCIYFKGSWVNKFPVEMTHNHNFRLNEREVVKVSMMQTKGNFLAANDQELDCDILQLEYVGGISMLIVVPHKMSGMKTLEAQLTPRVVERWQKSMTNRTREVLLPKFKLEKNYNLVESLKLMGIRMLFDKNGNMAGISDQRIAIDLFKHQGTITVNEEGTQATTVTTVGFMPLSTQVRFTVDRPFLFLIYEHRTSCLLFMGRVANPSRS
# Procedure: (§1) Inhibitory effect of IMD-4690 on the activity of PAI-1 was measured by the direct tPA assay. Briefly, recombinant tPA and PAI-1 was mixed with IMD-4690, and then tPA substrate with fluorescent pigment (Pyr-Gly-Arg-MCA) was added in this mixture and incubated. The enzymatic activity was calculated by measuring the fluorescence. The inhibitory activity of IMD-4690 on other enzymes was measured with the similar method.
# [2] = biological target: T2, PAI-3 (Protein C inhibitor/SERPINA5) (Homo sapiens, UniProt P05154); assay: as above; format: biochemical; conditions: Ser protease: uPA
# T2 sequence (P05154 26-406): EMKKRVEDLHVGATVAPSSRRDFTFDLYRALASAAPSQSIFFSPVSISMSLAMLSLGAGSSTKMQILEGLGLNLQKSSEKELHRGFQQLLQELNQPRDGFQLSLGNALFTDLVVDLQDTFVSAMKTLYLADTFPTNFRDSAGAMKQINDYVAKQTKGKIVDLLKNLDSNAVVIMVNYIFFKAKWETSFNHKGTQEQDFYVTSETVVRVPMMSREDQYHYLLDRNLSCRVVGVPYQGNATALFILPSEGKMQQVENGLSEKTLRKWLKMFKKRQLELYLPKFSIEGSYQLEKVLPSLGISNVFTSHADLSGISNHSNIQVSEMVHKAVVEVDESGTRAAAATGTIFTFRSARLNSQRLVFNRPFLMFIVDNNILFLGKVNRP
# Procedure: as §1
# [3] = biological target: α1-anti-trypsin (SERPINA1) (Homo sapiens, UniProt P01009); assay: as above; format: biochemical; conditions: Ser protease: Trypsin, Neu-Elastase
# Procedure: as §1
# [4] = system: chronic allergen exposure model of bronchial asthma in mice; assay: Mediators in lung homogenates (ELISA/activity kits), chronic Dp exposure asthma model; format: in vivo, mouse
# Procedure: (§2) All mice were sensitized on days 0 and 7 by intraperitoneal injections of 10 μg of Dp dissolved in 500 μL saline and mixed with 1mg of Alum (Sigma-Aldrich Japan). Dp-sensitized mice were challenged intranasally with 10 μg (10 μL) Dp in 70 μL saline on alternate days, 3 days per week, from days 14 to 67. The mice were also treated intraperitoneally with IMD-4690 (10 mg/kg) (Dp/IMD group) or CMC alone (Dp/CMC group) at the same day with Dp challenge. As a control, mice were challenged with saline and given CMC during this period (control/CMC group) (Fig. 1A). Each experiment was performed using six mice per group.
# The right lungs were frozen until analyzed. Frozen tissue were solubilized by homogenization in lysis buffer (Cell Signaling Technology, Inc., Danvers, Mass., USA) containing 1 tablet of Complete Protease Inhibitor Cocktail Tablets, EDTA-free (Santa Cruz Biotechnology, Inc., Santa Cruz, CA, USA), per 25 mL of buffer by using an Ultramicro homogenizer set (I.S.O.,Inc., Yokohama, Japan). Samples of the homogenate were centrifuged at 15,000 rpm for 10 min. The supernatants were stored at -80°C.
# Protein concentrations were determined by the BCA method (Pierce, Rockford, IL, USA). Cytokines, growth factors, enzymes, and serum IgE were determined using commercial ELISA kits. ELISA kits and their sensitivities were as follows: IL-4, -5, -12, -13, TNF-α, IFN-γ, VEGF, TGF-β, total MMP-9, and TIMP-1 (R&D Systems, Minneapolis, MN, USA), with sensitivities of 2, 7, 2.5, 1.5, 5.1, 2, 3, 1.7, 7, and 1.4 pg/mL, respectively; active and total PAI-1 (Innovative Research Inc., Sarasota, FL, USA) with sensitivities of 20 and 32 pg/mL; active MMP-9 (MMP-9 Biotrak Activity Assay, GE Healthcare, Buckinghamshire, UK) with a sensitivity of 0.5 ng/mL; HGF (Rat HGF determination kit by EIA, Institute of Immunology Co., Ltd., Tokyo, Japan) with a sensitivity of 0.4 ng/mL; and serum IgE (ELISA mouse IgE kit, Seikagaku Biobussiness Corp., Tokyo, Japan) with a sensitivity of 0.5 ng/mL.
# [5] = system: chronic allergen exposure model of bronchial asthma in mice; assay: BALF cell classification, chronic Dp asthma model; format: in vivo, mouse; conditions: 10 mg/kg i.p., vs Dp/CMC mice
# Procedure: as §2
# After measurement of lung resistance, the mice were euthanized humanely by cutting the axillary artery to obtain serum samples. Following sacrifice, bronchoalveolar lavage was performed twice with saline (0.8 mL) by using a soft cannula. After counting the cell numbers in the BALF using the automated cell viability analyzer Vi-Cell (Beckman Coulter, Calif., USA), BALF samples were cytospun onto glass slides and stained with Diff-Quick (Baxter, Miami, Fla., USA) for classification.
# [6] = BALB/c mice, Dp challenge 8 weeks, 10 mg/kg i.p., vs Dp/CMC mice
# [7] = Dp/IMD mice (10 mg/kg i.p.) vs Dp/CMC mice
# [8] = ELISA, 10 mg/kg i.p., vs Dp/CMC mice
# α1-anti-trypsin (SERPINA1), sequence (P01009 25-418): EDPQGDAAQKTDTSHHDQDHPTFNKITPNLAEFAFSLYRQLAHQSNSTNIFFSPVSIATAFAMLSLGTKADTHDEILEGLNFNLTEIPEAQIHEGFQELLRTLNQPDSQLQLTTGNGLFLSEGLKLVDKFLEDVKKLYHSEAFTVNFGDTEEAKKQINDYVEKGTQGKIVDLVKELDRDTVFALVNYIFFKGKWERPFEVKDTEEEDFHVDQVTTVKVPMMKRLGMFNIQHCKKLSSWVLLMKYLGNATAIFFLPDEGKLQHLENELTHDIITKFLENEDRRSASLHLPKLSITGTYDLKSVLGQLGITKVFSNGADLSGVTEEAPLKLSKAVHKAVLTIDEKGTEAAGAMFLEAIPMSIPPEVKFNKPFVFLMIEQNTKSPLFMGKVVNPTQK
smiles,measurement,setting,value
"CC(C)(C)c1ccc(Oc2cc(-c3ccc(OC(F)(F)F)cc3)ccc2OCC(=O)O)cc1 [IMD-4690, 2-[[3-(4-tert-Butylphenoxy)-4'-(trifluoromethoxy) [1,1'-biphenyl]-4-yl]oxy] acetic acid]",IC50,[1],> 25 µM
same,IC50,[2],> 25 µM
same,IC50,[3],> 25 µM
same,IFN-γ production in lung homogenates,"[4]; 10 mg/kg i.p., vs Dp/CMC mice",inhibited
same,IL-4 level in lung homogenates,"[4]; 10 mg/kg i.p., vs Dp/CMC mice",significantly decreased
same,IL-5 level in lung homogenates,"[4]; 10 mg/kg i.p., vs Dp/CMC mice",significantly decreased
same,IL-13 level in lung homogenates,"[4]; 10 mg/kg i.p., vs Dp/CMC mice",significantly decreased
same,Ratio of active MMP-9/TIMP-1 in lung homogenates,"[4]; 10 mg/kg i.p., vs Dp/CMC mice",significantly restored
same,TNF-α production in lung homogenates,"[4]; 10 mg/kg i.p., vs Dp/CMC mice",inhibited
same,Level of active PAI-1 in lung homogenates,[4]; [6],significantly reduced
same,Level of total PAI-1 in lung homogenates,[4]; [6],significantly reduced
same,HGF levels in lung homogenates,[4]; [7],significantly higher
same,Proportion of active PAI-1 as a percentage of the total PAI-1 in lung homogenates,[4]; [7],significantly lower
same,Active form of TGF-β1 in lung homogenates,[4]; [8],significantly reduced
same,Total MMP-9 levels in lung homogenates,[4]; [8],"tended to decrease the total MMP-9 levels, although no significant differences were observed"
same,VEGF concentration in lung homogenates and BALF,[4]; [8],significantly reduced
same,Number of eosinophils in BALF,[5],significantly decreased
same,Number of lymphocytes in BALF,[5],significantly decreased
